Patent publication US12295920B2, “Composition for treatment, prevention, or amelioration of Alzheimer's disease, a composition for suppression of brain nerve cell death, a composition for suppression of microglia activation induced by amyloid β peptide, and a composition for suppression of PGE2, TNF-α, or IL-1β production induced …” (House Wellness Foods Corporation, priority 2018, dated 2025)

Key:
[1] = test system: macrophage cells differentiated from THP-1 cells; experiment: Suppression of PGE2 production by macrophage cells activated by amyloid β peptide aggregate (ELISA); type: cell-based, human; conditions: 12.5 to 100 μM compound, 24 h pretreatment; 25 μM Aβ aggregate 24 h; FIG. 1
Protocol: (§1) 1.4. Evaluation of Activity of Suppressing Activation of Macrophage Cells Induced by Amyloid β Peptide Cells of the human monocytic cell line THP-1 were suspended in RPMI1640 (10% FBS) medium, the cells were seeded in a 96-well plate at 8.0×10^4 cells/well, 100 nM 12-O-tetradecanoylphorbol 13-acetate (PMA, differentiation-inducing factor) was added thereto, and culture was conducted in the presence of 5% CO2 for 24 hours to differentiate the cells into macrophage cells. Thereafter, the medium was exchanged with another RPMI1640 (10% FBS) medium containing either the turmeric extracts (50, 100, and 200 μg/ml), termeronol A (12.5, 25, 50, or 100 μM), or termeronol B (12.5, 25, 50, or 100 μM), and culture was conducted in the presence of 5% CO2 for 24 hours to treat the cells with each specimen. Thereafter, the medium was exchanged with another RPMI1640 (2% FBS) medium containing an aggregate of 25 μM amyloid β peptides (Aβ), and culture was conducted in the presence of 5% CO2 for 24 hours to activate the cells. Thereafter, prostaglandin E2 (PGE2), the tumor necrosis factor α (TNF-α), and interleukin-1β (IL-1β) released in the medium were assayed via ELISA.

[2] = test system: macrophage cells differentiated from THP-1 cells; experiment: Suppression of TNF-α production by macrophage cells activated by amyloid β peptide aggregate (ELISA); type: cell-based, human; conditions: 50 μM and 100 μM compound, 24 h pretreatment; 25 μM Aβ aggregate 24 h; FIG. 2
Protocol: as §1

[3] = test system: macrophage cells differentiated from THP-1 cells; experiment: Suppression of IL-1β production by macrophage cells activated by amyloid β peptide aggregate (ELISA); type: cell-based, human; conditions: 50 μM and 100 μM compound, 24 h pretreatment; 25 μM Aβ aggregate 24 h; FIG. 3
Protocol: as §1

[4] = test system: human neuroblastoma SHSY5Y cells; experiment: Cell death of SHSY5Y cells induced by conditioned medium of Aβ-activated macrophage cells (WST-1 assay); type: cell-based; conditions: macrophage cells pretreated with termeronol B 50 μM 24 h, then 25 μM Aβ 12 h; SHSY5Y 48 h in conditioned medium; vs control (Aβ+); FIG. 4
Protocol: Cells of the human monocytic cell line THP-1 were suspended in RPMI1640 (10% FBS) medium, the cells were seeded in a 96-well plate at 8.0×10^4 cells/well, 100 nM 12-O-tetradecanoylphorbol 13-acetate (PMA, differentiation-inducing factor) was added thereto, and culture was conducted in the presence of 5% CO2 for 24 hours to differentiate the cells into macrophage cells. […]
WST-1 assays comprise: adding WST-1 (2-(4-iodophenyl)-3-(4-nitrophenyl)-5-(2,4-disulfophenyl)-2H-tetrazolium, monosodium salt, Dojindo Laboratories) to each well containing cells; conducting culture in a CO2 incubator for a given period of time to generate water-soluble formazan from WST-1 with the activity of dehydrogenase in mitochondria of viable cells; and assaying the concentration of the generated formazan. […] The formazan concentration was determined based on the absorbance at 450 nm using a microplate reader (reference wavelength: 630 nm). […]

SMILES | enhancement of PEG2 production by Aβ treatment [1] | enhancement of TNF-α production by Aβ treatment [2] | enhancement of IL-1β production by Aβ treatment [3] | activity of the culture supernatant for inducing cell death of brain neuronal cells [4]
CC(C)=CC(=O)CC(C)c1ccc(C)c(O)c1 (stereo not shown) [termeronol A, Termeronol A] | suppress the enhancement of PEG2 production | suppress the enhancement of TNF-α production | suppress the enhancement of IL-1β production | 
CC(C)=CC(=O)CC(C)c1ccc(C)cc1O (stereo not shown) [termeronol B, Termeronol B] | suppress the enhancement of PEG2 production | suppress the enhancement of TNF-α production | suppress the enhancement of IL-1β production | more suppressed
